Among the test systems are SW-620 colon; M14 melanoma; TK-10 renal; UO-31 renal; IGROV1 ovarian; SK-MEL-5 melanoma; ACHN renal; HOP-62 NSCLC; CAKI-1 renal; 786-0 renal.
Holding throughout (assay): DTP human tumour cell line panel, 48 h

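A five-concentration, 48-hour dose response in 96-well plates underlies each endpoint, interpolated linearly between surrounding concentrations. Here, GI50 denotes the concentration required for 50% inhibition of growth. Definition used: TGI = concentration required for complete inhibition of growth.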

Here are results for nine compounds from PubChem BioAssay (NCI).

As for `CC(C)Oc1ccc(C(=O)Cn2ccnc2)cc1-n1c(CN2CCN(C(=O)COc3ccc(Cl)cc3)CC2)nc2ccccc2c1=O`, the GI50 (in general, the concentration that inhibits growth by half) in the experiment with SW-620 colon is 13.4 µM; in the experiment on M14 melanoma it was 14 µM; in the experiment with TK-10 renal, 12.8 µM; with UO-31 renal, 1.56 µM; in the experiment with IGROV1 ovarian, 1 µM; with SK-MEL-5 melanoma, 9.78 µM. Further, the GI50 with ACHN renal is 1.61 µM; in the experiment with HOP-62 NSCLC, 15 µM; in the experiment on CAKI-1 renal it was 4.04 µM; with 786-0 renal it was 1.3 µM. The TGI (as a rule, the concentration giving total growth inhibition) is 50.9 µM in the experiment with SW-620 colon; 32.6 µM in the experiment with M14 melanoma; > 74.4 µM in the experiment with TK-10 renal; 2.98 µM in the experiment with UO-31 renal; 16.5 µM in the experiment with IGROV1 ovarian; 23.5 µM in the experiment on SK-MEL-5 melanoma. Besides, the concentration for total growth inhibition (TGI) in the experiment with ACHN renal came out at 3.14 µM; in the experiment on HOP-62 NSCLC it was 44.9 µM; with CAKI-1 renal, 9.25 µM; in the experiment on 786-0 renal, 5.48 µM.
In the case of `C=C1C(=O)C23C(O)C1CC[C@H]2C12CCCC(C)(COC(C)=O)[C@H]1[C@H](O)[C@]3(O)OC2` (stereo not given in full), the total growth inhibition concentration (TGI) in the experiment with SW-620 colon is 1.92 µM; with M14 melanoma, 2.84 µM; in the experiment on TK-10 renal it was 3.62 µM; in the experiment on UO-31 renal, 3.35 µM; with IGROV1 ovarian, 4.05 µM; in the experiment with SK-MEL-5 melanoma, 3.26 µM. Moreover, the TGI turned out to be 3.32 µM with ACHN renal, 8.56 µM in the experiment on HOP-62 NSCLC, 3.44 µM with CAKI-1 renal and 2.24 µM in the experiment on 786-0 renal.
`OCc1ccc(N2CCOCC2)cc1Cl`: the GI50 in the experiment on SW-620 colon is > 100 µM; in the experiment on M14 melanoma, > 100 µM; in the experiment with TK-10 renal, 2.94 µM; in the experiment with UO-31 renal, > 100 µM; with IGROV1 ovarian, 6.73 µM; with SK-MEL-5 melanoma, > 91.2 µM. Besides, the GI50 in the experiment with ACHN renal, with HOP-62 NSCLC, with CAKI-1 renal and with 786-0 renal was > 100 µM throughout. The concentration for total growth inhibition (TGI) in the experiment with SW-620 colon was > 100 µM; in the experiment on M14 melanoma it was > 100 µM; with TK-10 renal it was 11.4 µM; in the experiment with UO-31 renal it was > 100 µM; in the experiment on IGROV1 ovarian, 32.6 µM; in the experiment with SK-MEL-5 melanoma it was > 100 µM. For the same compound, the concentration for total growth inhibition (TGI) in the experiment on ACHN renal, in the experiment on HOP-62 NSCLC, with CAKI-1 renal and with 786-0 renal was > 100 µM each time.
On to `Cc1cccc(C)c1N1C(=O)C(=O)C(c2nc3ccccc3s2)C(=Nc2cccc3c(=O)[nH][nH]c(=O)c23)C1=O` (stereo not given), for which the TGI in the experiment with SW-620 colon, with M14 melanoma, in the experiment on TK-10 renal, in the experiment with UO-31 renal, with IGROV1 ovarian and in the experiment on SK-MEL-5 melanoma was > 100 µM in each case. Further, the TGI with ACHN renal, in the experiment on HOP-62 NSCLC, with CAKI-1 renal and with 786-0 renal was > 100 µM throughout.
Take `c1cnn2ncc(-c3ccnc(Nc4ccc5c(c4)OCCO5)n3)c2c1`: the GI50 in the experiment on SW-620 colon is 0.0786 µM; with M14 melanoma it was 0.0699 µM; in the experiment with TK-10 renal, 0.0685 µM; in the experiment on UO-31 renal, 0.0917 µM; with IGROV1 ovarian, 0.0815 µM; in the experiment with SK-MEL-5 melanoma, 0.0651 µM. For the same compound, the GI50 in the experiment with ACHN renal is 0.0549 µM; in the experiment with HOP-62 NSCLC, 0.0958 µM; in the experiment on CAKI-1 renal it was 0.0773 µM; in the experiment with 786-0 renal, 0.0764 µM. In addition, the total growth inhibition concentration (TGI) was 0.383 µM with SW-620 colon; 0.221 µM in the experiment on M14 melanoma; 0.224 µM in the experiment on TK-10 renal; > 25 µM in the experiment with UO-31 renal; > 25 µM with IGROV1 ovarian; 0.632 µM with SK-MEL-5 melanoma. Moreover, the TGI in the experiment with ACHN renal was > 25 µM; with HOP-62 NSCLC, > 25 µM; in the experiment with CAKI-1 renal it was > 8.78 µM; with 786-0 renal, > 25 µM.
For the compound `CC(=O)[CH-]C(=O)c1ccccc1.CC(=O)[CH-]C(=O)c1ccccc1.CC1(C)OCC(C2OC3OC(C)(C)OC3C2[O-])O1.CC[O-].[Ti+4]` (stereo not given), the GI50 was 15.6 µM in the experiment with SW-620 colon; 16.3 µM with M14 melanoma; 12.4 µM in the experiment on TK-10 renal; 18.8 µM in the experiment on UO-31 renal; 17.9 µM in the experiment with IGROV1 ovarian; 10.8 µM with SK-MEL-5 melanoma. The GI50 is 17.3 µM in the experiment with ACHN renal, 15.9 µM in the experiment with HOP-62 NSCLC, 22.8 µM with CAKI-1 renal and 18.4 µM in the experiment on 786-0 renal. Moreover, the concentration for total growth inhibition (TGI) in the experiment on SW-620 colon is 44.5 µM; in the experiment with M14 melanoma it was 36.1 µM; in the experiment with TK-10 renal, 27 µM; with UO-31 renal, 41.9 µM; in the experiment with IGROV1 ovarian it was 33.5 µM; with SK-MEL-5 melanoma it was 23.9 µM. Moreover, the concentration for total growth inhibition (TGI) was 35.8 µM with ACHN renal, 31.1 µM with HOP-62 NSCLC, 40.9 µM with CAKI-1 renal and 36 µM with 786-0 renal.
`COc1ccccc1NC(=O)/C(=C/c1ccccc1)C(C)=O`: the concentration for total growth inhibition (TGI) was > 100 µM with SW-620 colon; 67.6 µM with M14 melanoma; > 100 µM in the experiment with TK-10 renal; > 100 µM in the experiment with UO-31 renal; > 100 µM in the experiment on IGROV1 ovarian; 62 µM in the experiment with SK-MEL-5 melanoma. In addition, the TGI in the experiment on ACHN renal, with HOP-62 NSCLC, with CAKI-1 renal and with 786-0 renal was > 100 µM in each case.
Take `CC1OC(c2ccc3c(c2O)C(=O)C2=C(C3=O)C3(O)C(=O)CC(C)(O)CC3(O)C=C2)CC(O)C1O` (stereo not given): the TGI with SW-620 colon amounted to 21.7 µM; with M14 melanoma, 30.7 µM; in the experiment with TK-10 renal it was 28.6 µM; with UO-31 renal, 36.9 µM; in the experiment with IGROV1 ovarian, 27.9 µM; in the experiment on SK-MEL-5 melanoma, 22.9 µM. Also, the total growth inhibition concentration (TGI) in the experiment with ACHN renal worked out at 26.5 µM; in the experiment with HOP-62 NSCLC, 60.7 µM; with CAKI-1 renal it was 19.7 µM; with 786-0 renal, 33.6 µM.
With `COc1ccc(C2=C(N3CCc4ccccc43)C(=O)NC2=O)cc1`, the GI50 was > 25 µM with SW-620 colon; > 25 µM in the experiment with M14 melanoma; > 24.2 µM in the experiment with TK-10 renal; 9.88 µM with UO-31 renal; > 25 µM with IGROV1 ovarian; > 21.6 µM in the experiment on SK-MEL-5 melanoma. Besides, the GI50 in the experiment on ACHN renal, in the experiment on HOP-62 NSCLC, with CAKI-1 renal and in the experiment on 786-0 renal was > 25 µM throughout. Moreover, the total growth inhibition concentration (TGI) in the experiment with SW-620 colon, in the experiment with M14 melanoma, with TK-10 renal, with UO-31 renal, in the experiment on IGROV1 ovarian and in the experiment on SK-MEL-5 melanoma was > 25 µM in each case. The TGI with ACHN renal, in the experiment with HOP-62 NSCLC, in the experiment on CAKI-1 renal and in the experiment with 786-0 renal was > 25 µM in each case.
